Tests used:
Experiment in all cases: DBD combination treatment, viability enhancement factor
Type in all cases: cell-based, human
GS261NS = GS261NS (p13), labelled therapy combined with crystalline DBD polymorph
Description: (§1) Crystalline DBD polymorph treatment was combined with chemotherapy, radiotherapy and targeted inhibitors to determine whether the crystalline DBD polymorph form could: enhance efficacy of the conventional therapies; enhance efficacy when combined with newer ‘targeted’ therapies; or would make (a subset of) cultures more sensitive to this treatment.
(§2) Therefore, cultures were treated with: • a.

GS102periNS = GS102periNS (p20 + p21), labelled therapy combined with crystalline DBD polymorph
Description: as §1, §2

GS184NS = GS184NS (p18 + p19), labelled therapy combined with crystalline DBD polymorph;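 note: DBD at its own IC50 and half IC50 determined at Day 5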
Description: as §1, §2

GS289NS = GS289NS (p15 + p16), labelled therapy combined with crystalline DBD polymorph;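 note: DBD at its own IC50 and half IC50 determined at Day 5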
Description: as §1, §2

GS324coreNS = GS324coreNS (p19), labelled therapy combined with crystalline DBD polymorph
Description: as §1, §2

GS224NS = GS224NS (p17), labelled therapy combined with crystalline DBD polymorph
Description: as §1, §2

GS359NS = GS359NS (p15 + p14), labelled therapy combined with crystalline DBD polymorph
Description: as §1, §2

GS186coreNS = GS186coreNS (p18), labelled therapy combined with crystalline DBD polymorph
Description: as §1, §2

GS104periNS = GS104periNS (p21 + p22), labelled therapy combined with crystalline DBD polymorph
Description: as §1, §2

GS245NS = GS245NS (p16 + p15), labelled therapy combined with crystalline DBD polymorph
Description: as §1, §2

GS249NS = GS249NS (p17), labelled therapy combined with crystalline DBD polymorph
Description: as §1, §2

GS281NS = GS281NS (p15), labelled therapy combined with crystalline DBD polymorph
Description: as §1, §2

GS279periNS = GS279periNS (p16 + p15), labelled therapy combined with crystalline DBD polymorph;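 note: DBD at its own IC50 and half IC50 determined at Day 5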
Description: as §1, §2

GS257NS = GS257NS (p16 + p17), labelled therapy combined with crystalline DBD polymorph;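 note: DBD at its own IC50 and half IC50 determined at Day 5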
Description: as §1, §2

GS304NS = GS304NS (p16), labelled therapy combined with crystalline DBD polymorph
Description: as §1, §2

GS279coreNS = conditions: Day 5; GS279coreNS (p12 + p13); labelled therapy combined with crystalline DBD polymorph
Description: as §1, §2

GS203NS = GS203NS (P19 + p18), labelled therapy combined with crystalline DBD polymorph
Description: as §1, §2

GS365NS = GS365NS (p17 + p16), labelled therapy combined with crystalline DBD polymorph
Description: as §1, §2

GS323periNS = conditions: Day 5; GS323periNS (p20 + p19); labelled therapy combined with crystalline DBD polymorph
Description: as §1, §2

GS186periNS = GS186periNS (p15), labelled therapy combined with crystalline DBD polymorph
Description: as §1, §2

Row | Compound | enhancement factor (viability % of most effective monotherapy divided by viability % of combination) (GS261NS; Day 5) | enhancement factor (viability % of most effective monotherapy divided by viability % of combination) (GS261NS; Day 8) | enhancement factor (viability % of most effective monotherapy divided by viability % of combination) (GS102periNS; Day 5) | enhancement factor (viability % of most effective monotherapy divided by viability % of combination) (GS102periNS; Day 8) | enhancement factor (viability % of most effective monotherapy divided by viability % of combination) (GS184NS; Day 5) | enhancement factor (viability % of most effective monotherapy divided by viability % of combination) (GS184NS; Day 8) | enhancement factor (viability % of most effective monotherapy divided by viability % of combination) (GS289NS; Day 5) | enhancement factor (viability % of most effective monotherapy divided by viability % of combination) (GS289NS; Day 8) | enhancement factor (viability % of most effective monotherapy divided by viability % of combination) (GS324coreNS; Day 5) | enhancement factor (viability % of most effective monotherapy divided by viability % of combination) (GS324coreNS; Day 8) | enhancement factor (viability % of most effective monotherapy divided by viability % of combination) (GS224NS; Day 5) | enhancement factor (viability % of most effective monotherapy divided by viability % of combination) (GS224NS; Day 8) | enhancement factor (viability % of most effective monotherapy divided by viability % of combination) (GS359NS; Day 5) | enhancement factor (viability % of most effective monotherapy divided by viability % of combination) (GS359NS; Day 8) | enhancement factor (viability % of most effective monotherapy divided by viability % of combination) (GS186coreNS; Day 5) | enhancement factor (viability % of most effective monotherapy divided by viability % of combination) (GS186coreNS; Day 8) | enhancement factor (viability % of most effective monotherapy divided by viability % of combination) (GS104periNS; Day 5) | enhancement factor (viability % of most effective monotherapy divided by viability % of combination) (GS104periNS; Day 8) | enhancement factor (viability % of most effective monotherapy divided by viability % of combination) (GS245NS; Day 5) | enhancement factor (viability % of most effective monotherapy divided by viability % of combination) (GS245NS; Day 8) | other results
1 | Cc1[nH]c2ccccc2c1CCNCc1ccc(/C=C/C(=O)NO)cc1 [Panobinostat] | 1.392 | 2.253 | 1.591 | 3.863 | 1.712 | 2.357 | 2.519 | 3.535 | 3.192 | 9.253 | 4.399 | 7.387 | 4.343 | 5.512 | 2.557 | 5.363 | 1.339 | 1.796 | 1.129 | 1.202 | enhancement factor (viability % of most effective monotherapy divided by viability % of combination) (GS249NS; Day 5): 1.074; enhancement factor (viability % of most effective monotherapy divided by viability % of combination) (GS249NS; Day 8): 0.944; enhancement factor (viability % of most effective monotherapy divided by viability % of combination) (GS281NS; Day 5): 1.480; enhancement factor (viability % of most effective monotherapy divided by viability % of combination) (GS281NS; Day 8): 4.353; enhancement factor (viability % of most effective monotherapy divided by viability % of combination) (GS279periNS; Day 5): 1.943; enhancement factor (viability % of most effective monotherapy divided by viability % of combination) (GS279periNS; Day 8): 5.488; enhancement factor (viability % of most effective monotherapy divided by viability % of combination) (GS257NS; Day 5): 1.643; enhancement factor (viability % of most effective monotherapy divided by viability % of combination) (GS257NS; Day 8): 1.590; enhancement factor (viability % of most effective monotherapy divided by viability % of combination) (GS304NS; Day 5): 4.406; enhancement factor (viability % of most effective monotherapy divided by viability % of combination) (GS304NS; Day 8): 5.405; enhancement factor (viability % of most effective monotherapy divided by viability % of combination) (GS279coreNS): 5.962; enhancement factor (viability % of most effective monotherapy divided by viability % of combination) (GS203NS; Day 8): 1.651; enhancement factor (viability % of most effective monotherapy divided by viability % of combination) (GS365NS; Day 5): 2.914; enhancement factor (viability % of most effective monotherapy divided by viability % of combination) (GS365NS; Day 8): 3.253; enhancement factor (viability % of most effective monotherapy divided by viability % of combination) (GS323periNS): 1.656; enhancement factor (viability % of most effective monotherapy divided by viability % of combination) (GS186periNS; Day 5): 2.105; enhancement factor (viability % of most effective monotherapy divided by viability % of combination) (GS186periNS; Day 8): 8.116
2 | Cn1nnc2c(C(N)=O)ncn2c1=O [TMZ, Temozolomide] | 1.271 | 1.462 | 1.268 | 1.309 | 1.362 | 1.531 | 1.376 | 1.032 | 1.700 | 1.377 | 1.335 | 1.470 | 1.830 | 1.700 | 1.751 | 2.029 | 1.101 | 0.987 | 1.099 | 1.088 | enhancement factor (viability % of most effective monotherapy divided by viability % of combination) (GS249NS; Day 5): 1.602; enhancement factor (viability % of most effective monotherapy divided by viability % of combination) (GS281NS; Day 5): 1.264; enhancement factor (viability % of most effective monotherapy divided by viability % of combination) (GS281NS; Day 8): 1.161; enhancement factor (viability % of most effective monotherapy divided by viability % of combination) (GS279periNS; Day 5): 1.162; enhancement factor (viability % of most effective monotherapy divided by viability % of combination) (GS279periNS; Day 8): 1.129; enhancement factor (viability % of most effective monotherapy divided by viability % of combination) (GS257NS; Day 5): 1.005; enhancement factor (viability % of most effective monotherapy divided by viability % of combination) (GS257NS; Day 8): 0.858; enhancement factor (viability % of most effective monotherapy divided by viability % of combination) (GS304NS; Day 5): 1.147; enhancement factor (viability % of most effective monotherapy divided by viability % of combination) (GS304NS; Day 8): 1.134; enhancement factor (viability % of most effective monotherapy divided by viability % of combination) (GS279coreNS): 1.440; enhancement factor (viability % of most effective monotherapy divided by viability % of combination) (GS203NS; Day 5): 1.055; enhancement factor (viability % of most effective monotherapy divided by viability % of combination) (GS203NS; Day 8): 1.159; enhancement factor (viability % of most effective monotherapy divided by viability % of combination) (GS365NS; Day 5): 1.156; enhancement factor (viability % of most effective monotherapy divided by viability % of combination) (GS365NS; Day 8): 1.019; enhancement factor (viability % of most effective monotherapy divided by viability % of combination) (GS323periNS): 1.553; enhancement factor (viability % of most effective monotherapy divided by viability % of combination) (GS186periNS; Day 5): 2.167; enhancement factor (viability % of most effective monotherapy divided by viability % of combination) (GS186periNS; Day 8): 1.220

From US20220142941A1, “COMBINATION THERAPEUTIC REGIMENS WITH 1,6-DIBROMO-1,6-DIDEOXY-DULCITOL” (Eleison Pharmaceuticals LLC, priority 2019, published 2022)
